Reference: ChEMBL document CHEMBL3046790, “Antioxidant potential and antimicrobial screening of some novel imidazole derivatives: greenway efficient one pot synthesis” (Med Chem Res, 2012)
Converted amounts (≈) assume the structure as drawn.

Legend:
Format in all cases: functional
[1] = Antioxidant activity assessed as superoxide scavenging activity after 15 min by PMS/NADH-NBT assay
[2] = Antioxidant activity assessed as hydroxyl radical scavenging activity at 60 uM after 60 min using thiobarbutaric acid by spectrophotometry
[3] = Antioxidant activity assessed as hydroxyl radical scavenging activity at 40 uM after 60 min using thiobarbutaric acid by spectrophotometry
[4] = Antioxidant activity assessed as superoxide scavenging activity at 80 uM after 15 min by PMS/NADH-NBT assay
Staphylococcus aureus = test: Antimicrobial activity against Staphylococcus aureus after 24 hr
[5] = Antioxidant activity assessed as DPPH scavenging activity at 30 uM after 30 min by spectrophotometry
[6] = Antioxidant activity assessed as DPPH scavenging activity at 50 uM after 30 min by spectrophotometry
[7] = Antioxidant activity assessed as superoxide scavenging activity at 60 uM after 15 min by PMS/NADH-NBT assay
[8] = Antioxidant activity assessed as superoxide scavenging activity at 100 uM after 15 min by PMS/NADH-NBT assay
[9] = Antioxidant activity assessed as superoxide scavenging activity at 10 uM after 15 min by PMS/NADH-NBT assay
[10] = Antioxidant activity assessed as DPPH scavenging activity at 10 uM after 30 min by spectrophotometry
Escherichia coli = test: Antimicrobial activity against Escherichia coli after 24 hr
Candida = test: Antimicrobial activity against Candida-6 after 24 hr; details: Candida, 6, 24 h
[11] = Antioxidant activity assessed as hydroxyl radical scavenging activity at 80 uM after 60 min using thiobarbutaric acid by spectrophotometry
Aspergillus flavus = test: Antimicrobial activity against Aspergillus flavus after 24 hr
[12] = Antioxidant activity assessed as DPPH scavenging activity at 20 uM after 30 min by spectrophotometry
[13] = Antioxidant activity assessed as DPPH scavenging activity after 30 min by spectrophotometry
[14] = Antioxidant activity assessed as hydroxyl radical scavenging activity at 100 uM after 60 min using thiobarbutaric acid by spectrophotometry
[15] = Antioxidant activity assessed as DPPH scavenging activity at 40 uM after 30 min by spectrophotometry
[16] = Antioxidant activity assessed as hydroxyl radical scavenging activity at 10 uM after 60 min using thiobarbutaric acid by spectrophotometry
[17] = Antioxidant activity assessed as hydroxyl radical scavenging activity after 60 min using thiobarbutaric acid by spectrophotometry
[18] = Antioxidant activity assessed as superoxide scavenging activity at 40 uM after 15 min by PMS/NADH-NBT assay
Aspergillus niger = test: Antimicrobial activity against Aspergillus niger after 24 hr
Klebsiella pneumoniae = test: Antimicrobial activity against Klebsiella pneumoniae after 24 hr
[19] = Antioxidant activity assessed as superoxide scavenging activity at 20 uM after 15 min by PMS/NADH-NBT assay
[20] = Antioxidant activity assessed as hydroxyl radical scavenging activity at 20 uM after 60 min using thiobarbutaric acid by spectrophotometry

## COc1ccc(-n2c(-c3ccccc3)nc(C)c2C)cc1
[1]
  Activity: Dose-dependent effect
  IC50: 3.74 µg/mL (≈ 13.4 µM)
[2]
  Activity: 48.3%
[3]
  Activity: 43.7%
[4]
  Activity: 68.4%
Staphylococcus aureus
  MIC: 50 µg/mL (≈ 180 µM)
[5]
  Activity: 59.6%
[6]
  Activity: 55.5%
[7]
  Activity: 64.9%
[8]
  Activity: 59.6%
[9]
  Activity: 10.5%
[10]
  Activity: 14.1%
Escherichia coli
  MIC: 25 µg/mL (≈ 89.8 µM)
Candida
  MIC: 25 µg/mL (≈ 89.8 µM)
[11]
  Activity: 50.6%
Aspergillus flavus
  MIC: 25 µg/mL (≈ 89.8 µM)
[12]
  Activity: 28.3%
[13]
  Activity: Dose-dependent effect
  IC50: 3.64 µg/mL (≈ 13.1 µM)
[14]
  Activity: 52.9%
[15]
  Activity: 56.6%
[16]
  Activity: 35.6%
[17]
  Activity: Dose-dependent effect
  IC50: 4.5 µg/mL (≈ 16.2 µM)
[18]
  Activity: 63.1%
Aspergillus niger
  MIC: 100 µg/mL (≈ 359 µM)
Klebsiella pneumoniae
  MIC: 100 µg/mL (≈ 359 µM)
[19]
  Activity: 28.1%
[20]
  Activity: 40.2%

## O=C(O)c1cn(C2CC2)c2cc(N3CCNCC3)c(F)cc2c1=O [CIPROFLOXACIN]
Klebsiella pneumoniae
  MIC: 100 µg/mL (≈ 302 µM)

## COc1cc(OC)cc(-n2c(-c3ccccc3)nc(C)c2C)c1
[1]
  Activity: Dose-dependent effect
  IC50: 4.16 µg/mL (≈ 13.5 µM)
[2]
  Activity: 54%
[3]
  Activity: 47.1%
[4]
  Activity: 59%
Staphylococcus aureus
  MIC: 25 µg/mL (≈ 81.1 µM)
[5]
  Activity: 52.5%
[6]
  Activity: 55.5%
[7]
  Activity: 53.3%
[8]
  Activity: 61%
[9]
  Activity: 13.3%
[10]
  Activity: 17.2%
Escherichia coli
  MIC: 50 µg/mL (≈ 162 µM)
Candida
  MIC: 25 µg/mL (≈ 81.1 µM)
[11]
  Activity: 55.2%
Aspergillus flavus
  MIC: 25 µg/mL (≈ 81.1 µM)
[12]
  Activity: 20.2%
[13]
  Activity: Dose-dependent effect
  IC50: 3.8 µg/mL (≈ 12.3 µM)
[14]
  Activity: 58.6%
[15]
  Activity: 57.6%
[16]
  Activity: 34.5%
[17]
  Activity: Dose-dependent effect
  IC50: 4.14 µg/mL (≈ 13.4 µM)
[18]
  Activity: 49.5%
Aspergillus niger
  MIC: 25 µg/mL (≈ 81.1 µM)
Klebsiella pneumoniae
  MIC: 100 µg/mL (≈ 324 µM)
[19]
  Activity: 32.4%
[20]
  Activity: 39.1%

## COc1cc(OC)cc(-n2c(-c3ccc(F)cc3)nc(C)c2C)c1
[1]
  Activity: Dose-dependent effect
  IC50: 4.16 µg/mL (≈ 12.7 µM)
[2]
  Activity: 57.5%
[3]
  Activity: 47.1%
[4]
  Activity: 58.1%
Staphylococcus aureus
  MIC: 50 µg/mL (≈ 153 µM)
[5]
  Activity: 42.4%
[6]
  Activity: 56.6%
[7]
  Activity: 60%
[8]
  Activity: 55.2%
[9]
  Activity: 21.9%
[10]
  Activity: 12.1%
Escherichia coli
  MIC: 50 µg/mL (≈ 153 µM)
Candida
  MIC: 50 µg/mL (≈ 153 µM)
[11]
  Activity: 55.2%
Aspergillus flavus
  MIC: 50 µg/mL (≈ 153 µM)
[12]
  Activity: 19.2%
[13]
  Activity: Dose-dependent effect
  IC50: 3.98 µg/mL (≈ 12.2 µM)
[14]
  Activity: 54%
[15]
  Activity: 57.6%
[16]
  Activity: 35.6%
[17]
  Activity: Dose-dependent effect
  IC50: 4.18 µg/mL (≈ 12.8 µM)
[18]
  Activity: 55.2%
Aspergillus niger
  MIC: 50 µg/mL (≈ 153 µM)
Klebsiella pneumoniae
  MIC: 100 µg/mL (≈ 306 µM)
[19]
  Activity: 24.8%
[20]
  Activity: 40.2%

## C[C@@H]1[C@H](O)[C@@H](C)/C=C/C=C/C=C/C=C/C=C/C=C/C=C/[C@H](O[C@@H]2O[C@H](C)[C@@H](O)[C@H](N)[C@@H]2O)C[C@@H]2O[C@](O)(C[C@@H](O)C[C@@H](O)[C@H](O)CC[C@@H](O)C[C@@H](O)CC(=O)O[C@H]1C)C[C@H](O)[C@H]2C(=O)O [AMPHOTERICIN B]
Candida
  MIC: 12.5 µg/mL (≈ 13.5 µM)
Aspergillus flavus
  MIC: 25 µg/mL (≈ 27.1 µM)
Aspergillus niger
  MIC: 50 µg/mL (≈ 54.1 µM)

## COc1ccc(-n2c(-c3ccc(F)cc3)nc(C)c2C)cc1
[1]
  Activity: Dose-dependent effect
  IC50: 5.2 µg/mL (≈ 17.5 µM)
[2]
  Activity: 48.3%
[3]
  Activity: 43.7%
[4]
  Activity: 45.7%
Staphylococcus aureus
  MIC: 50 µg/mL (≈ 169 µM)
[5]
  Activity: 46.5%
[6]
  Activity: 68.7%
[7]
  Activity: 41.9%
[8]
  Activity: 41%
[9]
  Activity: 38.1%
[10]
  Activity: 11.1%
Escherichia coli
  MIC: 25 µg/mL (≈ 84.4 µM)
Candida
  MIC: 25 µg/mL (≈ 84.4 µM)
[11]
  Activity: 50.6%
Aspergillus flavus
  MIC: 25 µg/mL (≈ 84.4 µM)
[12]
  Activity: 20.2%
[13]
  Activity: Dose-dependent effect
  IC50: 3.46 µg/mL (≈ 11.7 µM)
[14]
  Activity: 52.9%
[15]
  Activity: 64.6%
[16]
  Activity: 39.1%
[17]
  Activity: Dose-dependent effect
  IC50: 3.84 µg/mL (≈ 13 µM)
[18]
  Activity: 39%
Aspergillus niger
  MIC: 25 µg/mL (≈ 84.4 µM)
Klebsiella pneumoniae
  MIC: 50 µg/mL (≈ 169 µM)
[19]
  Activity: 39%
[20]
  Activity: 48.3%

## O=C1O[C@H]([C@@H](O)CO)C(O)=C1O [ASCORBIC ACID]
[1]
  IC50: 2.8 µg/mL (≈ 15.9 µM)
[2]
  Activity: 65.3%
[3]
  Activity: 48.6%
[4]
  Activity: 66.5%
[5]
  Activity: 48.8%
[6]
  Activity: 75.4%
[7]
  Activity: 62.1%
[8]
  Activity: 73.5%
[9]
  Activity: 32.6%
[10]
  Activity: 26.5%
[11]
  Activity: 70.4%
[12]
  Activity: 34.5%
[13]
  IC50: 3.1 µg/mL (≈ 17.6 µM)
[14]
  Activity: 78.5%
[15]
  Activity: 66.5%
[16]
  Activity: 24.3%
[17]
  IC50: 2.72 µg/mL (≈ 15.4 µM)
[18]
  Activity: 55.5%
[19]
  Activity: 48.8%
[20]
  Activity: 41.3%
